Columns and labels:
[1] = splat cooling ice recrystallization inhibition (IRI) assay; details: for decrease in grain size: mean grain size vs PBS alone, 30 min at −6.4° C., FIG. 28
Description: In this assay, the area of ice crystals are measured after a 30 minute annealing time at −6.4° C. and compared to a positive control for ice recrystallization resulting in a quantitative measurement of the mean ice grain size. For a positive control, a phosphate buffered saline (PBS) solution was utilized. All samples were normalized to the PBS positive control. The ice recrystallization inhibition activity of the carbohydrate-based non-ionic surfactants n-octyl-β-D-glucopyranoside (compound 3) and n-octyl-β-D-galactopyranoside (compound 4) is shown in FIG. 1.
In this assay, the area of ice crystals are measured after a 30 minute annealing time at −6.4° C. and compared to a positive control for ice recrystallization resulting in a quantitative measurement of the mean ice grain size. For a positive control, a PBS solution was utilized. All samples were normalized to the PBS positive control.
N-aryl-D-gluconamides (3a), (2a), (4a), and (1b) are a class of low molecular weight carbohydrate-based compounds. The ice recrystallization inhibition activity of (3a), (2a), (4a), and (1b) was assessed using a “splat cooling” assay. In this assay, the area of ice crystals are measured after a 30 minutes annealing time at −6.4° C. and compared to a positive control for ice recrystallization resulting in a quantitative measurement of the mean ice grain size. For a positive control, PBS was utilized. All samples were normalized to the PBS positive control.

[2] = tested on: CD34+ cells (hematopoietic stem cells); experiment: post-thaw viability of CD34+ cells of cryopreserved umbilical cord blood, flow cytometry; format: cell-based, human; details: for Post-Thaw Viab.: UCB Unit 27; for CD34+ cell viability compared with control: vs control that contained 10% DMSO only
Description: Whole umbilical cord blood (UCB) should be stored at room temperature (15-25° C.) and processed within 48 hrs of collection. UCB is removed from collection bag and spilt in equal parts into 50 mL Falcon tubes. No more than 25 mL of UCB should be added per Falcon tube. UCB is diluted with 6% hetastarch (Hespan) to obtain a final concentration of 1% hetastarch and incubated for 10 minutes at room temperature. The tubes are then centrifuged at 50 g at 10° C. for 15-20 minutes, depending on volume. The centrifuge should not brake to stop. For total volumes of 30 mL, 15-17 minute centrifugation is utilized and for total volumes of 35 mL, 17-20 minute centrifugation is utilized. The supernatant and buffy coat (plasma and leukocytes) are removed carefully (not collecting RBCs) from the tubes and collected into new 50 mL Falcon tubes. These tubes are centrifuged at 400 g and 10° C. for 10 mins to pellet cells. The centrifuge brake can now be utilized. Plasma is removed and kept in new 50 mL Falcon tubes on ice. The cell pellets resuspended and combined in plasma to a total volume of 20 mL to generate leukocyte concentrate (LC). The LC is kept on ice for the duration of its use. Total mononuclear (CD45^+) and CD34^+ (hematopoetic stem cells) cell concentrations and viability are determined by flow cytometry (see Flow Cytometry procedure below). Aliquots of LC (50,000 CD34^+ cells) are utilized for cryopreservation experiments (see Cryopreservation Experiments procedure below).
Aliquots of LC (50,000 CD34^+ cells) are added to 2.0 mL cryovials. For each experiment, four cryovials are prepared (two for post-thaw viability analysis using flow cytometry and two for functionality analysis using the colony forming unit assay). Cryovials are kept on ice until placement in −80° C. freezer. Cryovials are centrifuged at 400 g and 10° C. for 5 minutes to pellet cells. After centrifugation, the time taken until placement in −80° C. freezer should not exceed 10 minutes. Supernatant is removed by aspiration or by decanting, but preferably by aspiration. Plasma (volume depends on desired cryosolution concentration) is added and cells are suspended by pipetting. Pre-made cryosolutions (see Cryosolutions) are added (volume depends on desired cryosolution concentration) and mixed by pipetting. Cryovials are placed in a Mr. Frosty® rate controlled freezing container which is then placed in a −80° C. freezer for 24 hours. By placing the cryovials in the freezing container, their contents undergo a cooling rate of about −1° C. per minute. After 24 hours, the cryovials are transferred to a liquid nitrogen dewar for storage until thawed for analysis.
Cryosolutions are prepared in distilled autoclaved water supplemented with 0.9% saline and 5% dextran for cryopreservation experiments and diluted with different volumes of plasma in cryovials depending on desired concentration of ice recrystallization inhibitor. N-(4-chlorophenyl)-D-gluconamide (4a) and N-(2-fluorophenyl)-D-gluconamide (2a) are prepared at 25 mM and N-(4-methoxyphenyl)-D-gluconamide (3a) and N-(2,6-difluorobenzyl)-D-gluconamide (1b) are prepared at 55 mM. 100, 50, 33 or 20 μL of 25 mM N-(4-chlorophenyl)-D-gluconamide (4a) or N-(2-fluorophenyl)-D-gluconamide (2a) are added to cryovials containing 50,000 CD34^+ cells suspended in 0, 50, 67, or 80 μL of plasma, respectively, for a final IRI concentration of 25, 12.5, 8 or 5 mM, respectively. 100, 50, 33 or 20 μL of 55 mM N-(4-methoxyphenyl)-D-gluconamide (3a) or N-(2,6-difluorobenzyl)-D-gluconamide (1b) are added to cryovials containing 50,000 CD34^+ cells suspended in 0, 50, 67, or 80 μL of plasma, respectively, for a final IRI concentration of […], 18 or 11 mM, respectively.
Total mononuclear cell (CD45+) and progenitor cell (CD34+) viability is assessed by flow cytometry using International Society of Hematotherapy and Graft Engineering (ISHAGE) guidelines (J. Hematother. Stem Cell Res. 1996, 5, 213-226). […]

Row | SMILES | ice recrystallization inhibition activity ([1]; concentration not given) | decrease in grain size [1] | Post-Thaw Viab. ([2]; 11 mM IRI) [%] | CD34+ cell viability compared with control [2] | Post-Thaw Viab. ([2]; 5 mM IRI) [%]
1 | O=C(NCc1c(F)cccc1F)[C@H](O)[C@@H](O)[C@H](O)[C@H](O)CO [(1b), N-(2,6-difluorobenzyl)-D-gluconamide] | higher IRI activity than compound (2b) | about 85% | 57 | substantially similar to the control | 
2 | O=C(Nc1ccc(Cl)cc1)[C@H](O)[C@@H](O)[C@H](O)[C@H](O)CO [(4a), N-(4-chlorophenyl)-D-gluconamide] |  | ~60% |  | substantially similar to the control | 88
3 | COc1ccc(NC(=O)[C@H](O)[C@@H](O)[C@H](O)[C@H](O)CO)cc1 [(3a), N-(4-methoxyphenyl)-D-gluconamide] |  | ~95% | 78 | substantially similar to the control | 
4 | O=C(Nc1ccccc1F)[C@H](O)[C@@H](O)[C@H](O)[C@H](O)CO [(2a), N-(2-fluorophenyl)-D-gluconamide] |  | ~95% |  | substantially similar to the control | 88
